We go through eleven compounds from patent US20080064681A1, “Therapeutic agent for treating glaucoma” (priority 2006, published 2008).

The test system of experiment [1] is intraocular pressure in rabbits. The note with it: literature reports; cited from earlier work.
The target of experiment [2] is T1, recombinant ROCK II (1-602) (Homo sapiens, UniProt O75116).
T1 construct: made in house; host or cells: Sf9 insect cells
The experiment is described as follows: Rho-kinase assay (phosphate incorporation, [γ-32P]ATP, RSK peptide). It is filed as biochemical. The note with it: 10 nM ROCK II, 10 μM ATP, 30° C., 10 minutes. The procedure: Rho-kinase assays were performed using the compounds in various concentrations and the 50% inhibitory concentrations (hereinafter referred to as the “IC50 value”) of the compounds for Rho-kinase were calculated. In the Rho-kinase assay, phosphorylation reaction was performed using an activated form of recombinant ROCK II (1-602) obtained by expressing human ROCK II cDNA in Sf9 cells […], and the phosphate incorporation activity was defined as the Rho-kinase activity. Namely, the compounds were each added to a reaction solution containing 50 mM Tris-HCL (ph 7.4), […], 2 mM EDTA, 2 mM EGTA, 0.1% tween 20, 50 μM RSK peptide, 10 μM [γ-^32P]ATP, and 10 nM ROCK II, and the reaction was allowed to proceed at 30° C. for 10 minutes. The reaction mixture was spotted on phosphocellulose paper, and the reaction was stopped by dipping the phosphocellulose paper into a phosphoric acid solution. The phosphocellulose paper was washed with the phosphoric acid solution, and then radioactivity was measured with a liquid scintillation counter.
An Rho-kinase assay was performed, and the 50% inhibitory concentration (hereinafter referred to as the “IC50 value”) was calculated. The IC50 value of the reference compound (S)-hexahydro-1-(4-fluoroisoquinoline-5-sulfonyl)-4-glycyl-2-methyl-1H-1,4-diazepine dihydrochloride for Rho-kinase is shown in Table 2.

In experiment [3] the test system is intraocular pressure in rabbits. The experiment is described as follows: Intraocular pressure measurement after instillation of eye drops in rabbits. The note with it: for time after instillation of maximum intraocular-pressure-reducing effect: 1% eye drops in phosphate buffer pH 7.0, 0.05 ml into right eye; for time after instillation of maximum intraocular-pressure-reducing effect / period of intraocular-pressure-reducing effect longer than that for the compound M / inhibition in vivo at 1 % / intraocular-pressure-reducing effect relative to that of the compound M: rabbit; for period of intraocular-pressure-reducing effect longer than that for the compound M / inhibition in vivo at 1 %: 1% eye drops; for inhibition in vivo at 1 %: Oryctolagus cuniculus, topical, 2 h, 120 minutes after instillation, read-out: maximum intraocular-pressure-reducing effect, intraocular pressure lower than that of the control eye; for intraocular-pressure-reducing effect relative to that of the compound M: after 120 minutes from the instillation. It is filed as in vivo, rabbit (NZW, male). The procedure:
Eye drops were prepared by dissolving each compound (1.0 g) in a phosphate buffer solution which was prepared by dissolving 0.8 g of sodium dihydrogen phosphate and 0.5 g of sodium chloride in purified water such that the final weight was 100 g. The pH was adjusted to 7.0 with sodium hydroxide.
As a control, a phosphate buffer solution (pH 7.0) in which 1.0 g of the compound M was not dissolved was used.
Each rabbit (NZW, male, 2.5 to 3.0 kg) was secured in a holder. One of the preparations (0.05 ml) was instilled into the right eye, and the phosphate buffer as control (0.05 ml) was instilled into the left eye. The intraocular pressures were measured serially using a TonoLab handheld mobile tonometer manufactured by Tiolat. The ratios to the control values were calculated and plotted with time (refer to figures).
Eye drops were prepared by dissolving the compound (S)-hexahydro-1-(4-fluoroisoquinoline-5-sulfonyl)-4-glycyl-2-methyl-1H-1,4-diazepine dihydrochloride (1.0 g) in 1.0 g of dimethyl sulfoxide and adding the resulting solution to a boric acid solution prepared by dissolving 2.0 g of boric acid in purified water such that the final weight was 100 g. The pH was adjusted to 7.0 with sodium hydroxide.
The eye drops were administered to a rabbit as in Example 1, and the intraocular pressures were measured.

Molecules are shown by their SMILES. Where a name gives a salt, the structure may show the parent alone.

T1 sequence (O75116 1-602): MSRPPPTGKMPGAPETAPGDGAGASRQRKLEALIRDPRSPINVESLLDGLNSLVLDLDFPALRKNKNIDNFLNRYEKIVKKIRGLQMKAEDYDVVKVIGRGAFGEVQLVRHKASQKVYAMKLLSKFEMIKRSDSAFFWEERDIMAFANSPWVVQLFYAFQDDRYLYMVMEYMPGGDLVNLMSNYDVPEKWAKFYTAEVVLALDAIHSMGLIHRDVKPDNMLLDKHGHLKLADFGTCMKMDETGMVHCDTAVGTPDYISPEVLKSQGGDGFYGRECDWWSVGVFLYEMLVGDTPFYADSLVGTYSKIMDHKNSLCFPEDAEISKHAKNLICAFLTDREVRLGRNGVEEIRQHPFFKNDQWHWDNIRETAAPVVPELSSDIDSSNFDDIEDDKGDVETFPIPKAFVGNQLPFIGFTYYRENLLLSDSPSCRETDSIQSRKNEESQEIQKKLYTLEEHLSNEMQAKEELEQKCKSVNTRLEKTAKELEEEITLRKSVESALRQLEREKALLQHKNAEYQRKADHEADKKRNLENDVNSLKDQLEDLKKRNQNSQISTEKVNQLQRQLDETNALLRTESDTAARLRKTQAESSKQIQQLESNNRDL

On to `O=S(=O)(c1cccc2cnccc12)N1CCCNCC1` [HA-1077], for which, in experiment [1], the “effect on intraocular pressure in rabbits (reported)” value was “reduce intraocular pressure in rabbits”.

For `C[C@H]1CNCCCCN1S(=O)(=O)c1cccc2cncc(Cl)c12` [Compound C8, (S)-octahydro-1-(4-chloroisoquinoline-5-sulfonyl)-2-methyl-1,4-diazocine dihydrochloride], the IC50 in experiment [2] was determined as 21.1 nM. Also, in experiment [3], the “time after instillation of maximum intraocular-pressure-reducing effect” value amounted to 120 min, the “period of intraocular-pressure-reducing effect longer than that for the compound M” value is listed as “substantially the same as that for the compound M”, the inhibition in vivo at 1 % stood at 35% and the “intraocular-pressure-reducing effect relative to that of the compound M” value is reported as 1.3 times.

`C[C@H]1CNCCCCN1S(=O)(=O)c1cccc2cncc(F)c12` [Compound F8, (S)-octahydro-1-(4-fluoroisoquinoline-5-sulfonyl)-2-methyl-1,4-diazocine dihydrochloride]: the IC50 in experiment [2] was 39.1 nM. In addition, in experiment [3], the “time after instillation of maximum intraocular-pressure-reducing effect” value was 120 min, the “period of intraocular-pressure-reducing effect longer than that for the compound M” value is on record as “about 1 hours”, the inhibition in vivo at 1 % came to 45% and the “intraocular-pressure-reducing effect relative to that of the compound M” value was determined as 1.6 times.

For `C[C@H]1CN(C(=O)CN)CCCN1S(=O)(=O)c1cccc2cncc(F)c12.Cl.Cl` [Reference Compound, (S)-hexahydro-1-(4-fluoroisoquinoline-5-sulfonyl)-4-glycyl-2-methyl-1H-1,4-diazepine dihydrochloride, reference compound], the IC50 in experiment [2] worked out at 54 nM. Besides, the intraocular-pressure-reducing effect entry in experiment [3] (1% eye drops in dimethyl sulfoxide / boric acid solution pH 7.0, rabbit) is given as “a statistically significant intraocular-pressure-reducing effect was not observed”.

Turning to `C[C@H]1CNCCCN1S(=O)(=O)c1cccc2cncc(F)c12` [Compound F7, (S)-hexahydro-1-(4-fluoroisoquinoline-5-sulfonyl)-2-methyl-1H-1,4-diazepine dihydrochloride], the IC50 in experiment [2] was 85 nM. Also, in experiment [3], the “time after instillation of maximum intraocular-pressure-reducing effect” value stood at 120 min, the “period of intraocular-pressure-reducing effect longer than that for the compound M” value is “about 3 hours”, the inhibition in vivo at 1 % amounted to 45% and the “intraocular-pressure-reducing effect relative to that of the compound M” value stood at 1.9 times.

For `C[C@H]1CNCCCN1S(=O)(=O)c1cccc2cncc(Cl)c12` [Compound C7, (S)-hexahydro-1-(4-chloroisoquinoline-5-sulfonyl)-2-methyl-1H-1,4-diazepine dihydrochloride], the IC50 in experiment [2] is 25.8 nM. Besides, in experiment [3], the “time after instillation of maximum intraocular-pressure-reducing effect” value worked out at 120 min, the “period of intraocular-pressure-reducing effect longer than that for the compound M” value is reported as “about 3 hours”, the inhibition in vivo at 1 % was 54% and the “intraocular-pressure-reducing effect relative to that of the compound M” value came out at 1.9 times.

`C[C@H]1CNCCCCN1S(=O)(=O)c1cccc2cncc(Br)c12` [Compound B8, (S)-octahydro-1-(4-bromoisoquinoline-5-sulfonyl)-2-methyl-1,4-diazocine dihydrochloride]: in experiment [2], the IC50 was found to be 48.5 nM. Further, in experiment [3], the “time after instillation of maximum intraocular-pressure-reducing effect” value came out at 120 min, the “period of intraocular-pressure-reducing effect longer than that for the compound M” value is given as “about 1 hours”, the inhibition in vivo at 1 % turned out to be 47% and the “intraocular-pressure-reducing effect relative to that of the compound M” value was 1.7 times.

Turning to `C[C@H]1CNCCCN1S(=O)(=O)c1cccc2cncc(Br)c12` [Compound B7, (S)-hexahydro-1-(4-bromoisoquinoline-5-sulfonyl)-2-methyl-1H-1,4-diazepine dihydrochloride], in experiment [2], the IC50 worked out at 28.4 nM. Moreover, in experiment [3], the “time after instillation of maximum intraocular-pressure-reducing effect” value amounted to 120 min, the “period of intraocular-pressure-reducing effect longer than that for the compound M” value was “about 5 hours”, the inhibition in vivo at 1 % worked out at 56% and the “intraocular-pressure-reducing effect relative to that of the compound M” value was found to be 2.0 times.

Turning to `C#Cc1cncc2cccc(S(=O)(=O)N3CCCNC[C@@H]3C)c12.Cl.Cl` [M, (S)-hexahydro-1-(4-ethynylisoquinoline-5-sulfonyl)-2-methyl-1 H-1,4-diazepine dihydrochloride, reference compound], the IC50 in experiment [2] was 19.5 nM. In addition, in experiment [3], the “time after instillation of maximum intraocular-pressure-reducing effect” value worked out at 120 min and the inhibition in vivo at 1 % was 28%.

For the compound `C[C@@H](N)[C@H]1CC[C@H](C(=O)Nc2ccncc2)CC1` [Compound Y-27632], the “effect on intraocular pressure in rabbits (reported)” value in experiment [1] is “reduce intraocular pressure in rabbits”.

Consider `C[C@H]1CNCCN1S(=O)(=O)c1cccc2cncc(Br)c12` [Compound B6, 2-(S)-1-(4-bromoisoquinoline-5-sulfonyl)-2-methylpiperazine dihydrochloride], for which the IC50 in experiment [2] is 634 nM. Moreover, in experiment [3], the “time after instillation of maximum intraocular-pressure-reducing effect” value came to 120 min, the “period of intraocular-pressure-reducing effect longer than that for the compound M” value was “about 2 hours”, the inhibition in vivo at 1 % amounted to 26% and the “intraocular-pressure-reducing effect relative to that of the compound M” value is reported as “substantially the same as that of the compound M”.
